pIC50: −log10 of the molar value. Read-outs that look alike come from different tables or passages of the source.
How the values were obtained:
[1] = molecular target: T1, CDK7: cyclin H and MNAT1 (Homo sapiens, UniProt P50613); test: Invitrogen CDK7 assay (kinase inhibition); type: biochemical; settings: co-factors cyclin H and MNAT1, read-out: IC50 against CDK7
T1 construct: purchased Invitrogen
Procedure: Compounds were assayed using Invitrogen CDK7 assay against a variety of kinases. Exemplary results are presented as IC50 values for compounds of the disclosure in Table 1 and for comparator compounds in Table 2. In Tables 1 and 2, “A” represents an IC50 value of less than 100 nM, “B” represents an IC50 value of greater than or equal to 100 nM and less than 1 μM, and “C” represents an IC50 value of greater than or equal to 1 μM. The co-factors used for each kinase in the assays were as follows: CDK7: cyclin H and MNAT1; CDK2: cyclin A; CDK9: cyclin T1.

[2] = molecular target: T2, SET Human Serotonin Transporter (Homo sapiens, UniProt P31645); test: 5-HT inhibition assay: Cerep SET Human Serotonin Transporter Binding (Antagonist Radioligand) Assay; settings: test compound 10 μM, ligand [3H]imipramine 2 nM, 60 min at RT
T2 construct: Cerep (Eurofins Discovery Services) 439
Procedure: The 5-HT inhibition assay was performed according to the Cerep SET Human Serotonin Transporter Binding (Antagonist Radioligand) Assay, such as the assay described in www.eurofinsdiscoveryservices.com/catalogmanagement/viewitem//439, accessed Jul. 22, 2019. In some experiments, the assay information is as shown below:
Ligand concentration: 2 nM; Non specific: imipramine (10 μM);
Incubation: 60 min at RT;
Control inhibitor: imipramine; and Test compound concentration: 10 μM. Exemplary results are presented as 5-HT % inhibition at 10 μM of compound for compounds of the disclosure in Table 1 and for comparator compounds in Table 2.

[3] = Table 1, compounds of the disclosure

T1 sequence (P50613 whole entry): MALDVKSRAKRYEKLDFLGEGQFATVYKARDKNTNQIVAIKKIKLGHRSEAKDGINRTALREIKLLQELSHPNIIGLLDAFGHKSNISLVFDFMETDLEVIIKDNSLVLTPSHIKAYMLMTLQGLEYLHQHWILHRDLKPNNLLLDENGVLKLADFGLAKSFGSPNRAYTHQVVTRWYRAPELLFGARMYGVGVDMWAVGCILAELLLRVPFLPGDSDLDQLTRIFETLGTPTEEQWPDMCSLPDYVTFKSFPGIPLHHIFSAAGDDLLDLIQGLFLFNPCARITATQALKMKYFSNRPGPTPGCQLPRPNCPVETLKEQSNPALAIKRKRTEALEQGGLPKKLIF
T1 sequence (P51946 whole entry partner): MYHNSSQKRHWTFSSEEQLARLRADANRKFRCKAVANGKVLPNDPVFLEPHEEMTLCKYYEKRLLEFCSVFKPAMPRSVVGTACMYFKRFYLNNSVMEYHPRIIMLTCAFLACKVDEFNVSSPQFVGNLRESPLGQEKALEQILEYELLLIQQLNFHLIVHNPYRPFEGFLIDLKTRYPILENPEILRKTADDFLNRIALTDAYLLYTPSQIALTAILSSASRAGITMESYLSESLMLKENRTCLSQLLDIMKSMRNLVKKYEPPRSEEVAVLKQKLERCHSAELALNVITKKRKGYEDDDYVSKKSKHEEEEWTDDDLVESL
T1 sequence (P51948 whole entry partner): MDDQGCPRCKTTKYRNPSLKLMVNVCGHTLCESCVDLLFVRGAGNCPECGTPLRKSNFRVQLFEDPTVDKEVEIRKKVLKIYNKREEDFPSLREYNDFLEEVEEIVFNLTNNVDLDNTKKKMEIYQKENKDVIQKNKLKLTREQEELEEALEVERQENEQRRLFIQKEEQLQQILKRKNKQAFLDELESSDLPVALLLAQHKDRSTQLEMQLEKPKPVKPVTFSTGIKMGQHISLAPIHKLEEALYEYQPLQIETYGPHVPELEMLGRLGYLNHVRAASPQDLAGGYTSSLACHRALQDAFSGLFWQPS
T2 sequence (P31645 whole entry): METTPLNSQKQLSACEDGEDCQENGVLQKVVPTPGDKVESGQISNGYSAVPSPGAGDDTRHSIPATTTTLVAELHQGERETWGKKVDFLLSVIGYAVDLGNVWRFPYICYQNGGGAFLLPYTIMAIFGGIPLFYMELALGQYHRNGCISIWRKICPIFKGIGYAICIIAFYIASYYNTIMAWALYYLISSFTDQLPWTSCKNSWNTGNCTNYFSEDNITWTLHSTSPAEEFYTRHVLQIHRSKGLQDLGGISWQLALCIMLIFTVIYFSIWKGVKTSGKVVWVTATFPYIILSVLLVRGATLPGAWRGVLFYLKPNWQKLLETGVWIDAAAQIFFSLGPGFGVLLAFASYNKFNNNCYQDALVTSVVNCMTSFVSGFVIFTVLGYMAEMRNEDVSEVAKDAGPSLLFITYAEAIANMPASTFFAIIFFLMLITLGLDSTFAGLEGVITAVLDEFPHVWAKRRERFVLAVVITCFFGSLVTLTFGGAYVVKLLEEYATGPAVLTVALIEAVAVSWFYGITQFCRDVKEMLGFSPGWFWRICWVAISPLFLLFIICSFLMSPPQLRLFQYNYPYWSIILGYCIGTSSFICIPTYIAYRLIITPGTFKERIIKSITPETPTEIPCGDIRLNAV

In the case of `C=CC(=O)Nc1cccc(C(=O)Nc2ccc(Nc3n[nH]c4c3CN(C(=O)N[C@H](CN(C)C)c3ccccc3)C4(C)C)cc2)c1` [Compound C-1], the pIC50 ([1]; Table 2, comparator compounds) was over 7.00 and the inhibition at 10 µM ([2]; Table 2, comparator compounds) was 98.3%.

`C=CC(=O)Nc1ccc(C(=O)Nc2n[nH]c3c2CN(C(=O)N[C@H](CN(C)C)c2ccccc2)C32CC2)cc1` [Compound C-2] showed a pIC50 ([1]; Table 2, comparator compounds) of over 7.00 and an inhibition at 10 µM ([2]; Table 2, comparator compounds) of 95.3%.

With `C=CC(=O)Nc1cccc(Nc2n[nH]c3c2CN(C(=O)N[C@H](CN(C)C)c2ccccc2)C3(C)C)c1` [Compound C-3] the pIC50 ([1]; Table 2, comparator compounds) was over 7.00 and the inhibition at 10 µM ([2]; Table 2, comparator compounds) was 98.2%.

Work on `C=CC(=O)Nc1ccc(C(=O)N2CCC(Nc3n[nH]c4c3CN(C(=O)N[C@H](CN(C)C)c3ccccc3)C4(C)C)CC2)cc1` [Compound C-4] yielded a pIC50 ([1]; Table 2, comparator compounds) of over 7.00 and an inhibition at 10 µM ([2]; Table 2, comparator compounds) of 96.4%.

Work on `C=CC(=O)N1CCC[C@H](C(=O)Nc2n[nH]c3c2CN(C(=O)N[C@H](CN(C)C)c2ccccc2)C3(C)C)C1` [Compound C-5] yielded a pIC50 ([1]; Table 2, comparator compounds) of over 7.00 and an inhibition at 10 µM ([2]; Table 2, comparator compounds) of 94.3%.

Work on `C=CC(=O)Nc1ccc(C(=O)Nc2cccc(C(=O)Nc3n[nH]c4c3CN(C(=O)N[C@H](CN(C)C)c3ccccc3)C4(C)C)c2)cc1` [Compound C-6] yielded a pIC50 ([1]; Table 2, comparator compounds) of over 7.00 and an inhibition at 10 µM ([2]; Table 2, comparator compounds) of 99.6%.

`C=CC(=O)Nc1ccc(C(=O)Nc2n[nH]c3c2CN(C(=O)N[C@H](CN(C)C)c2ccccc2)[C@@H]3C(C)C)cc1` [Compound C-7] was tested, and the pIC50 ([1]; Table 2, comparator compounds) was over 7.00 and the inhibition at 10 µM ([2]; Table 2, comparator compounds) was 74.5%.

In the case of `C=CC(=O)Nc1ccc(C(=O)Nc2cccc(Nc3n[nH]c4c3CN(C(=O)N[C@H](CN(C)C)c3ccccc3)C4(C)C)c2)cc1` [Compound C-8], the pIC50 ([1]; Table 2, comparator compounds) was over 7.00 and the inhibition at 10 µM ([2]; Table 2, comparator compounds) was 98%.

In the case of `C=CC(=O)Nc1ccc(C(=O)Nc2n[nH]c3c2CN(C(=O)N[C@H](CN(C)C)c2ccccc2)C3(C)C)nc1` [Compound C-10], the pIC50 ([1]; Table 2, comparator compounds) was over 7.00 and the inhibition at 10 µM ([2]; Table 2, comparator compounds) was 98.3%.

`C=CC(=O)Nc1ccc(C(=O)Nc2nn(C)c3c2CN(C(=O)N[C@H](CN(C)C)c2ccccc2)C3(C)C)cc1` [Compound I-1, (S)-3-(4-acrylamidobenzamido)-N-(2-(dimethylamino)-1-phenylethyl)-1,6,6-trimethyl-4,6-dihydropyrrolo[3,4-c]pyrazole-5(1H)-carboxamide] gave a pIC50 [1, 3] of over 7.00 and an inhibition at 10 µM ([2]; Table 1) of 26.8%.

`C=CC(=O)Nc1ccc(C(=O)Nc2nn(C(F)F)c3c2CN(C(=O)N[C@H](CN(C)C)c2ccccc2)C3(C)C)cc1` [Compound I-5, (S)-3-(4-acrylamidobenzamido)-1-(difluoromethyl)-N-(2-(dimethylamino)-1-phenylethyl)-6,6-dimethyl-4,6-dihydropyrrolo[3,4-c]pyrazole-5(1H)-carboxamide] gave a pIC50 [1, 3] of over 7.00 and an inhibition at 10 µM ([2]; Table 1) of 81.4%.

For `C=CC(=O)Nc1ccc(C(=O)Nc2nn(C)c3c2CN(C(=O)N[C@H](CN(C)C)c2ccccc2)C3(C)C)nc1` [Compound I-8, (S)-3-(5-acrylamidopicolinamido)-N-(2-(dimethylamino)-1-phenylethyl)-1,6,6-trimethyl-4,6-dihydropyrrolo[3,4-c]pyrazole-5(1H)-carboxamide], the pIC50 [1, 3] was 6.00 to 7.00 and the inhibition at 10 µM ([2]; Table 1) was 50.6%.

With `C=CC(=O)Nc1ccc(C(=O)Nc2nn(C(F)F)c3c2CN(C(=O)N[C@H](CN(C)C)c2ccccc2)C3(C)C)nc1` [Compound I-33, (S)-3-(5-acrylamidopicolinamido)-1-(difluoromethyl)-N-(2-(dimethylamino)-1-phenylethyl)-6,6-dimethyl-4,6-dihydropyrrolo[3,4-c]pyrazole-5(1H)-carboxamide] the pIC50 [1, 3] was over 7.00 and the inhibition at 10 µM ([2]; Table 1) was 88.8%.

`C=CC(=O)Nc1ccc(C(=O)Nc2n[nH]c3c2CN(C(=O)N[C@H](CN(C)C)c2ccccc2)C3(C)C)cc1C(F)(F)F` [II-2] was tested, and the pIC50 ([1]; Table 2, comparator compounds) was over 7.00 and the inhibition at 10 µM ([2]; Table 2, comparator compounds) was 98.1%.
